Assay type in all cases: cell-based, mouse
The test system of one test is Primary murine B cells. Nature of the test: CFSE dilution / Sytox Blue FACS of primary murine B cells. Conditions: 72 hours; absence of BLyS; FIG. 3. On the procedure:
Primary murine B cells were purified by positive selection as described above. For cultures >48 hours old, proliferation was quantified by carboxyfluorescein diacetate, succinimidyl ester (CFSE) dilution and cell death by TO-PRO-3 binding. To label the cells with CFSE, the cells were first washed 2 times with PBS. Next, the stock of CFSE was diluted to 10 μM in PBS and the cells were brought to 1×10^7 cells/ml. The cells were mixed at a 1:1 ratio with 10 μM CFSE and mixed gently for 2 minutes. The CFSE labeling reaction was stopped by adding heat inactivated fetal calf serum equal in volume to the starting volume for the cell suspension. […] Proliferation was measured by fluorophore dilution at 60-72 hours by flow cytometry. […]
Primary murine B cells were labeled and prepared as in Example 2.7 and stimulated with either media alone, […] of TLR9 ligand CpG oligodeoxynucleotide (ODN) 1826, […] of the mouse anti-chromatin autoantibody PL2-3 or […] DVD3759 in the presence or absence of […] of the B cell survival factor BLyS. After 72 hours, cells were stained with 1 μM of the cell permeable DNA stain Sytox Blue and analyzed by fluorescence activated cell sorting (FACS). Cell division was determined by dilution of CFSE and dead cells were identified by staining with Sytox Blue.

In test [1] the test system is Dnase2−/− Ifnar1−/− DKO B cells. In words: 3H-thymidine incorporation of B220-purified B cells, DKO. Conditions: 24 hours, FIG. 10C. From the text: (§1) Mice: RF and Tlr-9^−/− mice have been described previously (Uccellini et al. (2008) J. Immunol. 181:5875-5884), The DNase II-deficient mice on a C57BL/6 background were kindly provided by Dr. S, Nagata and obtained from the RIKEN Institute. […] and Unc93B1-deficient mice were obtained from Jackson Lab. DnaseII^−/− Ifnar1^−/− (Het), DnaseII^−/− Ifnar1−/− (DKO), and DnaseII^−/− Unc93b1^−/− (TKO), were bred at UMMS. All mice were maintained at the Department of Animal Medicine of the University of Massachusetts Medical School in accordance with the regulations of the American Association for the Accreditation of Laboratory Animal Care.
(§2) Proliferation of B220+ B cells: B cells were purified by magnetic bead separation using CD45R/B220-conjugated magnetic particles (BD Biosciences, San Jose, Calif., USA) and stimulated as described previously (Nundel et al. (2013) J. Leukoc. Biol. 94:865-875) with 15 μg/ml goat anti-mouse IgM F(ab′)2 (Jackson ImmunoResearch), ODN1826 (CpG; Idera Pharmaceuticals), anti-DNA-mAb (Leadbetter et al. (2002) Nature 416:603-607), or DVD-Ig proteins (1 μg/ml). B cell proliferation was assessed by ^3H-thymidine (Amersham Biosciences, Piscataway, N.J., USA) incorporation at 24 hours post-stimulation. For long-term proliferation assays, B220-purified B cells were labeled with a final concentration of 2.5 μM CFSE (Life Technologies) in PBS for 2 minutes. […]
For orientation: Incorporation of labelled thymidine or its analogues reports DNA synthesis.

Test [2] deals with Dnase2−/− Ifnar1−/− Unc93b1−/− TKO B cells. In words: 3H-thymidine incorporation of B220-purified B cells, TKO. Conditions: 24 hours, FIG. 10C.
Source text: as §1, §2

In the case of ODN 1826 [reference compound], the “cell division (CFSE dilution) and cell death (Sytox Blue)” value in the test with Primary murine B cells is “post-proliferative cell death was not observed”. Further, the “response of DKO B cells” value in test [1] is reported as “normal response”. For the same substance, the “response of TKO B cells” value in test [2] was “failed to respond”.
